Experiments:
Phosphodiesterase 4 [1] = biological target: T1, Phosphodiesterase 4 (Homo sapiens, UniProt P27815+Q08499+Q07343+Q08493); test: Affinity for phosphodiesterase (PDE IV) in guinea pig brain membrane using [3H]rolipram displacement.; format: cell membranes, Cavia porcellus; conditions: target entry is the homologue from another species
Phosphodiesterase 4 [2] = biological target: T1, Phosphodiesterase 4; test: In vitro inhibition of phosphodiesterase (PDE IV) from guinea pig macrophages.; format: protein assay, Cavia porcellus; conditions: target entry is the homologue from another species

SMILES | Ki (Phosphodiesterase 4 [1]) [nM] | IC50 (Phosphodiesterase 4 [2]) [nM]
COc1ccc(C2(Cc3ccncc3)CCN(C(=O)N(C)C)C2=O)cc1OC1CCCC1 (stereo unspecified) | 274 | 319
COc1ccc(C2(Cc3ccncc3)CCN(C(C)=O)C2=O)cc1OC1CCCC1 (stereo unspecified) | 367 | 461
CCCCN1CCC(Cc2ccncc2)(c2ccc(OC)c(OC3CCCC3)c2)C1=O (stereo unspecified) | 137 | 123
COc1ccc(C2(Cc3ccccc3)CCN(C(=O)OC(C)(C)C)C2=O)cc1OC1CCCC1 (stereo unspecified) | 2996 | 220
COc1ccc(C2(Cc3ccccc3)CCNC2=O)cc1OC1CCCC1 (stereo unspecified) | 787 | 1000
COc1ccc(C2(Cc3ccncc3)CCNC2=O)cc1OC1CCCC1 (stereo unspecified) | 210 | 800
COc1ccc(C2(CC#N)CCN(C(=O)OC(C)(C)C)C2=O)cc1OC1CCCC1 (stereo unspecified) | 476 | 82
COc1ccc(C2(Cc3ccncc3)CCN(C(=O)OC(C)C)C2=O)cc1OC1CCCC1 (stereo unspecified) | 113 | 44
COC(=O)N1CCC(Cc2ccncc2)(c2ccc(OC)c(OC3CCCC3)c2)C1=O (stereo unspecified) | 822 | 293
COc1ccc(C2(Cc3ccncc3)CCN(C(=O)OC(C)(C)C)C2=O)cc1OC1CCCC1 (stereo unspecified) | 7.5 | 6.3
COc1ccc(C2(Cc3cc[n+]([O-])cc3)CCN(C(=O)OC(C)(C)C)C2=O)cc1OC1CCCC1 (stereo unspecified) | 217 | 59
COc1ccc(C2(Cc3ccncc3)CCN(Cc3ccc4ccccc4c3)C2=O)cc1OC1CCCC1 (stereo unspecified) | 4.3 | 17
COc1ccc(C2(Cc3cc[n+]([O-])cc3)CCNC2=O)cc1OC1CCCC1 (stereo unspecified) | 2247 | 1600
COc1ccc(C2(Cc3ccncc3)CCN(C(=O)OC(C)(C)C)C2)cc1OC1CCCC1 (stereo unspecified) | 470 | 807
COc1ccc(C2(Cc3ccncc3)CCN(Cc3ccccc3)C2=O)cc1OC1CCCC1 (stereo unspecified) | 51 | 56
COc1ccc(C2(Cc3ccncc3)CCN(CC3CCCCC3)C2=O)cc1OC1CCCC1 (stereo unspecified) | 43 | 48
COc1ccc(C2(Cc3ccncc3)CCN(Cc3ccncc3)C2=O)cc1OC1CCCC1 (stereo unspecified) | 443 | 401
COc1ccc(C2CCN(C(=O)OC(C)(C)C)C2=O)cc1OC1CCCC1 (stereo unspecified) | 337 | 700
COc1ccc(C2(Cc3ccncc3)CCN(CCC(C)C)C2=O)cc1OC1CCCC1 (stereo unspecified) | 80 | 81
COc1ccc(C2(Cc3ccncc3)CCN(Cc3cccc4ccccc34)C2=O)cc1OC1CCCC1 (stereo unspecified) | 822 | 293
CCOC(=O)N1CCC(Cc2ccncc2)(c2ccc(OC)c(OC3CCCC3)c2)C1=O (stereo unspecified) | 139 | 137
COc1ccc(C2(Cc3ccncc3)CCN(S(=O)(=O)c3ccc(C)cc3)C2=O)cc1OC1CCCC1 (stereo unspecified) | 217 | 61
COc1ccc(C2CCNC2=O)cc1OC1CCCC1 (stereo unspecified) | > 3745 | 5000
